Data from patent publication US20050043315A1, “Aminopyrimidine compounds, processes for their preparation and pharmaceutical compositions containing them” (priority 2002, published 2005).
Values belong to the molecule of their own block, whether it stands above or below them.

Tests used:
human A2a receptor = human A2a receptor (Homo sapiens, UniProt P29274); test: Adenosine antagonistic activity, radioligand binding with [3H]CGS 21680; settings: [3H]CGS 21680 20 nM
Protocol: (§1) The adenosine antagonistic activity [Ki(nM)] of the test compound was examined by radioligand binding techniques using 8-cyclopentyl-1,3-dipropylxanthine, [dipropyl-2,3-^3H(N)] ([^3H]DPCPX, 4.5 nM) for human A1 receptor and [^3H]CGS 21680 (20 nM) for human A2a receptor.

ddY mice = test: Anticatalepsy activity in mouse (haloperidol-induced catalepsy); format: in vivo; settings: 3.2 mg/kg orally, ddY mice n=7; haloperidol 0.32 mg/kg i.p. 30 min after compound; measured 30 min after injection
Protocol: The test compound (3.2 mg/kg) was administered orally with ddY mice(n=7). Then, haloperidol (0.32 mg/kg) was injected intraperitoneally 30 min. after the administration of the compound. Thirty min. after the injection, the cataleptic responses of mice were measured. The forelimbs of each mouse were placed on a 3 cm high, 3 mm wide horizontal bar, and the duration of cataleptic posture was measured for up to 30 sec.

human A1 receptor = target: T1, human A1 receptor (Homo sapiens, UniProt P30542); test: Adenosine antagonistic activity, radioligand binding with [3H]DPCPX; settings: [3H]DPCPX 4.5 nM
T1 sequence (P30542 1-326): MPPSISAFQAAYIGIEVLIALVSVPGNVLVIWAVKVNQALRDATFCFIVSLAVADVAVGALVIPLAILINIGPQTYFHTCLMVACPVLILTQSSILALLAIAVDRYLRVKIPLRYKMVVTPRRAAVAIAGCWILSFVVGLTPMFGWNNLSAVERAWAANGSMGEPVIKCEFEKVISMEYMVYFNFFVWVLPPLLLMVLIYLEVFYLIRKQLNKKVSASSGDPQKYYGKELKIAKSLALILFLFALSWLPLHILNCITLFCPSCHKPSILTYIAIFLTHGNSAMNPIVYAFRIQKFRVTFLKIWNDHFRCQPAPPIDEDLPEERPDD
Protocol: as §1

human A2a receptor, sequence (P29274 whole entry): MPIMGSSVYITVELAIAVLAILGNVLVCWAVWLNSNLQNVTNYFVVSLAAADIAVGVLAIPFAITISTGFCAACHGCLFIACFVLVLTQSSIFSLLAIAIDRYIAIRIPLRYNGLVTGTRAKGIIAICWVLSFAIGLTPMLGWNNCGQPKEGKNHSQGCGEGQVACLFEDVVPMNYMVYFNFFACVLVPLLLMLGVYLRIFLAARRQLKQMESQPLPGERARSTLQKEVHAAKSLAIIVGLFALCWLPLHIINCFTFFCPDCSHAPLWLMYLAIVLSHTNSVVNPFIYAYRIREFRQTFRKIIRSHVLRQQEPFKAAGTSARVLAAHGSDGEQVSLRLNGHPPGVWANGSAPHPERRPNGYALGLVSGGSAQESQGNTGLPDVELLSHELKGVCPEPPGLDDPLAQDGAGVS

Ki (human A2a receptor): 1.38 nM
melting point: 215 °C
Ki (human A1 receptor): 7.74 nM
Compound: CC(C)n1nc(-c2cnc(N)nc2-c2ccco2)ccc1=O [Example 47, 6-[2-Amino-4-(2-furyl)-5-pyrimidinyl]-2-isopropyl-3(2H)-pyridazinone]
Manifestation rate of catalepsy (number of mouse) (ddY mice): 1/7

melting point: 204 °C
Compound: CC(C)n1nc(-c2cnc(N)nc2-c2ccc(Br)cc2)ccc1=O [Example 235, 6-[2-Amino-4-(4-bromophenyl)-5-pyrimidinyl]-2-isopropyl-3(2H)-pyridazinone]

melting point: 238 to 240 °C
Compound: CC(C)n1nc(-c2cnc(N)nc2-c2cccc(Br)c2)ccc1=O [Example 236, 6-[2-Amino-4-(3-bromophenyl)-5-pyrimidinyl]-2-isopropyl-3(2H)-pyridazinone]

melting point: 244 °C
Compound: CC(C)n1nc(-c2cnc(N)nc2-c2c(F)cccc2F)ccc1=O [Example 237, 6-[2-Amino-4-(2,6-difluorophenyl)-5-pyrimidinyl]-2-isopropyl-3(2H)-pyridazinone]

melting point: 234 °C
Compound: CC(C)n1nc(-c2cnc(N)nc2-c2cc(F)cc(F)c2)ccc1=O [Example 238, 6-[2-Amino-4-(3,5-difluorophenyl)-5-pyrimidinyl]-2-isopropyl-3(2H)-pyridazinone]

melting point: 208 °C
Compound: CC(C)n1nc(-c2cnc(N)nc2-c2c(Cl)cccc2Cl)ccc1=O [Example 239, 6-[2-Amino-4-(2,6-dichlorophenyl)-5-pyrimidinyl]-2-isopropyl-3(2H)-pyridazinone]

melting point: 212 °C
Compound: Cc1cccc(C)c1-c1nc(N)ncc1-c1ccc(=O)n(C(C)C)n1 [Example 240, 6-[2-Amino-4-(2,6-dimethylphenyl)-5-pyrimidinyl]-2-isopropyl-3(2H)-pyridazinone]

melting point: 234 °C
Compound: CC(C)n1nc(-c2cnc(N)nc2-c2ccsc2)ccc1=O [Example 242, 6-[2-Amino-4-(3-thienyl)-5-pyrimidinyl]-2-isopropyl-3(2H)-pyridazinone]

melting point: 260 °C
Compound: COc1cccc(OC)c1-c1nc(N)ncc1-c1ccc(=O)n(C(C)C)n1 [Example 243, 6-[2-Amino-4-(2,6-dimethoxyphenyl)-5-pyrimidinyl]-2-isopropyl-3(2H)-pyridazinone]

The remaining lines, values behind:

Compound: Nc1ncc(-c2ccc(=O)[nH]n2)c(-c2ccccc2)n1 [Example 1, 6-(2-Amino-4-phenyl-5-pyrimidinyl)-3(2H)-pyridazinone]
Ki (human A2a receptor): 3.85 nM
Manifestation rate of catalepsy (number of mouse) (ddY mice): 4/7
melting point: > 280 °C
Ki (human A1 receptor): 11.3 nM

Compound: CCn1nc(-c2cnc(N)nc2-c2ccccc2)ccc1=O [Example 4, 6-(2-Amino-4-phenyl-5-pyrimidinyl)-2-ethyl-3(2H)-pyridazinone]
Ki (human A2a receptor): 4.35 nM
Manifestation rate of catalepsy (number of mouse) (ddY mice): 0/7
melting point: 255 to 256 °C
Ki (human A1 receptor): 3.14 nM

Compound: CC(=O)Nc1ncc(-c2ccc(=O)n(C(C)C)n2)c(-c2ccccc2)n1 [Example 7, N-[5-(1-Isopropyl-6-oxo-1,6-dihydro-3-pyridazinyl)-4-phenyl-2-pyrimidinyl]acetamide]
Ki (human A2a receptor): 2.09 nM
Manifestation rate of catalepsy (number of mouse) (ddY mice): 0/7
melting point: 209 to 210 °C
Ki (human A1 receptor): 6.47 nM

Compound: CC(C)n1nc(-c2cnc(NCc3ccccn3)nc2-c2ccccc2)ccc1=O [Example 18, 2-Isopropyl-6-{4-phenyl-2-[(2-pyridinylmethyl)amino]-5-pyrimidinyl}-3(2H)-pyridazinone]
Ki (human A2a receptor): 7.38 nM
Manifestation rate of catalepsy (number of mouse) (ddY mice): 0/7
melting point: 143 to 144.5 °C
Ki (human A1 receptor): 10.8 nM

Compound: CC(C)n1nc(-c2c(F)nc(N)nc2-c2ccccc2)ccc1=O [Example 136, 6-(2-Amino-4-fluoro-6-phenyl-5-pyrimidinyl)-2-isopropyl-3(2H)-pyridazinone]
Ki (human A2a receptor): 1.41 nM
Manifestation rate of catalepsy (number of mouse) (ddY mice): 0/7
melting point: 231 to 232.5 °C
Ki (human A1 receptor): 1.75 nM

Compound: COCCOc1ccc(-c2nc(N)ncc2-c2ccc(=O)n(C(C)C)n2)cc1 [Example 212, 6-{2-Amino-4-[4-(2-methoxyethoxy)phenyl]-5-pyrimidinyl}-2-isopropyl-3(2H)-pyridazinone]
Ki (human A2a receptor): 1.7 nM
Manifestation rate of catalepsy (number of mouse) (ddY mice): 0/7
melting point: 147 °C
Ki (human A1 receptor): 2.36 nM

Compound: CC(C)n1nc(-c2cnc(N)nc2-c2cccc(OCCN3CCOCC3)c2)ccc1=O [Example 222, 6-(2-Amino-4-{3-[2-(4-morpholinyl)ethoxy]phenyl}-5-pyrimidinyl)-2-isopropyl-3(2H)-pyridazinone]
melting point: 68 °C

Compound: CC(C)n1nc(-c2cnc(N)nc2-c2ccoc2)ccc1=O [Example 241, 6-[2-Amino-4-(3-furyl)-5-pyrimidinyl]-2-isopropyl-3(2H)-pyridazinone]
melting point: 216 °C

Compound: Cn1nc(-c2cnc(N)nc2-c2ccoc2)ccc1=O [Example 244, 6-[2-Amino-4-(3-furyl)-5-pyrimidinyl]-2-methyl-3(2H)-pyridazinone]
melting point: 241 °C

Compound: Cn1nc(-c2cnc(N)nc2-c2ccsc2)ccc1=O [Example 245, 6-[2-Amino-4-(3-thienyl)-5-pyrimidinyl]-2-methyl-3(2H)-pyridazinone]
melting point: 252 °C

Compound: CN(C)c1ncc(-c2ccc(=O)n(C)n2)c(-c2ccc(Cl)cc2)n1 [Example 246, 6-[4-(4-chlorophenyl)-2-(dimethylamino)-5-pyrimidinyl]-2-methyl-3(2H)-pyridazinone]
melting point: 166 °C

Compound: COc1ccc(-c2nc(N(C)C)ncc2-c2ccc(=O)n(C)n2)cc1 [Example 247, 6-[2-(Dimethylamino)-4-(4-methoxyphenyl)-5-pyrimidinyl]-2-methyl-3(2H)-pyridazinone]
melting point: 165 °C

Compound: CN(C)c1ncc(-c2ccc(=O)n(C)n2)c(-c2cccc(F)c2)n1 [Example 248, 6-[2-(Dimethylamino)-4-(3-fluorophenyl)-5-pyrimidinyl]-2-methyl-3(2H)-pyridazinone]
melting point: 184 °C

Compound: COc1ccc(-c2nc(N(C)C)ncc2-c2ccc(=O)n(C)n2)cc1F [Example 249, 6-[2-(Dimethylamino)-4-(3-fluoro-4-methoxyphenyl)-5-pyrimidinyl]-2-methyl-3(2H)-pyridazinone]
melting point: 158 °C

Compound: COCC(C)n1nc(-c2cnc(N)nc2-c2ccccc2)ccc1=O (stereo not drawn) [Example 250, 6-(2-Amino-4-phenyl-5-pyrimidinyl)-2-(2-methoxy-1-methylethyl)-3(2H)-pyridazinone]
melting point: 180 to 181 °C

Compound: CC(CO)n1nc(-c2cnc(N)nc2-c2ccccc2)ccc1=O (stereo not drawn) [Example 251, 6-(2-amino-4-phenyl-5-pyrimidinyl)-2-(2-hydroxy-1-methylethyl)-3(2H)-pyridazinone]
melting point: 222 to 223 °C

Compound: CC(C)n1nc(-c2c(Cl)nc(N)nc2-c2ccccc2)ccc1=O [Example 252, 6-(2-amino-4-chloro-6-phenyl-5-pyrimidinyl)-2-isopropyl-3(2H)-pyridazinone]
melting point: 235 to 237 °C

Compound: Cc1nc(N)nc(-c2ccccc2)c1-c1ccc(=O)n(C(C)C)n1 [Example 253, 6-(2-amino-4-methyl-6-phenyl-5-pyrimidinyl)-2-isopropyl-3(2H)-pyridazinone]
melting point: 213 to 215 °C
